The experiment deals with KLK proteases in human skin extract. Nature of the experiment: Inhibition of protease activity in human skin extract. Type of experiment: biochemical. On the procedure:
Materials: The peptide substrates PS-01 (YRSR-pNA Tyr-Arg-Ser-Arg-pNA) (SEQ ID NO. 1) and PS-02 (Lys-His-Leu-Tyr-pNA) (SEQ ID NO. 2) were synthesized by Zamboni Chemical Solutions (Montreal, Canada). Human epidermis samples were obtained from Biopredic (Saint-Grégoire, France). The BCA protein assay kit was bought from VWR.
Preparation of skin extract: The epidermis was frozen and lyophilized. A sample of 15 mg lyophilized epidermis was immersed in 1 mL high salt buffer (100 mM Tris, 5 mM EDTA, 2M KCl, pH 8), frozen twice in dry ice and thawed. After incubation overnight at 4° C. and addition of six 2.4 mm metal beads, the sample was homogenized in a Bertin Precellys Homogenizer (Atkinson, NH) three times at […] for 20 seconds each and cooled in between for 30 seconds. After centrifugation at maximal speed in a desktop minifuge, the protein concentration of the supernatant was determined by BCA assay (˜0.5 mg/mL).
Inhibition of protease activity in skin extract: Stock solutions of 200, 66, 22 and 0 μM of the tested compound in DMSO were prepared. Substrate stocks of 1100 μM PS-01 and PS-02 were prepared by dissolving in water. The wells of a 384 well plate was filled with 50 μL 2× assay buffer (see above) and then 45 μL substrate stock and 5 μL of the test compound were added. The reaction was started by addition of 10 μL skin extract for the substrate PS-02 and 5 μL for the substrate PS-01. The substrate hydrolysis was monitored in multi-well plate reader at 405 nm.
Chromogenic substrate cleavage progressions of Compounds 1.001, 1.002, and 14 were tested according to human stratum corneum extract assay of Example 4 using KLK5 and KLK7 preferred chromogenic peptide substrates (PS-01 and PS-02). The proteolytic cleavage of KLK5 selective substrate in skin extract by Compounds 1.001, 1.002, and 14 are compared and shown in FIGS. 4A-4D. NSK refers to extract from skin freshly prepared; and OSK refers to extract from skin post freeze thaw.

Where [1] appears, read: human skin extract, Conc 3.3 μM.

“Also recorded” adds a separate entry of the source. Marks after values point to notes of the source that are not given here.

Experimental findings from US12281123B2, “Benzoxazinone compounds as KLK5/7 dual inhibitors” (MOLECULAR SKIN THERAPEUTICS, INC., priority 2019, dated 2025) are described below.

`CS(=O)(=O)c1cc(CO)ccc1-c1nc2cc3c(cc2c(=O)o1)OCCO3` [Compound 1.001, 2-(4-(Hydroxymethyl)-2-(methylsulfonyl)phenyl)-7,8-dihydro-4H-[1,4]dioxino[2′,3′:4,5]benzo[1,2-d][1,3]oxazin-4-one]: the “Inhibition of proteolytic activity of skin extract, in words” value (compared to compounds 14 and 1.002, FIGS. 4A-4D (NSK), KLK5 selective substrate) is given as “more potent inhibition of proteolytic activity; also recorded: more potent inhibitor of the proteolytic activity of skin extract”. In addition, the “Initial rate of proteolytic activity” value is 0.04* Absorbance405/min (human skin extract, Conc 1 μM) and 0.07* Absorbance405/min under setting [1]. Moreover, the “Initial rate of substrate hydrolysis” value is recorded as 0.02* Absorbance405/min (human skin extract, Conc 1 μM) and 0.04* Absorbance405/min under setting [1]. Also, for the setting “human skin extract, compound concentration not given”, the “Rate in Skin Assay” value is reported as 0.004* Absorbance405/min.
